Reference: patent publication US20070128217A1 (priority 2003, published 2007)

Key:
[1] = system: control sera (pooled serum of ten healthy LUMC hospital workers; commercial negative donor pooled serum from the Dutch bloodbank); assay type: binding, human; parameters: Binding of Control serum LUMC to linear peptides / Binding of Control serum Blood-bank to linear peptides / Binding of Control serum LUMC to looped peptides / Binding of Control Serum Blood-Bank to Looped peptides / Binding of Control serum LUMC to linear peptides of the protein M of SARS-CoV Urbani / Binding of Control serum Blood-bank to linear peptides of the protein M of SARS-CoV Urbani / Binding of Control serum LUMC to looped peptides of the protein M of SARS-CoV Urbani / Binding of Control Serum Blood-Bank to Looped peptides of the protein M of SARS-CoV Urbani: unit not given here
[2] = system: antibodies in sera from SARS patients (sera 1a, 1b, 2, 6, 37, 62, London, SARS-yellow, SARS-green); assay type: binding, human; parameters: Binding of serum 6 to linear peptides of protein X1 of SARS-CoV Urbani / Binding of serum 37 to linear peptides of protein X1 of SARS-CoV Urbani / Binding of serum 6 to looped/cyclic peptide (PEPSCAN-ELISA) / Binding of serum 37 to looped/cyclic peptide (PEPSCAN-ELISA) / Binding of serum 37 to looped/cyclic peptides of protein X1 of SARS-CoV Urbani / Binding of serum 6 to linear peptides of protein X2 / Binding of serum 37 to linear peptides of protein X2 / Binding of serum 37 to looped/cyclic peptides of protein X2 of SARS-CoV Urbani / Binding of serum 6 to linear peptides of protein M of SARS-CoV Urbani / Binding of serum 37 to linear peptides of protein M of SARS-CoV Urbani / Binding of serum 6 to looped/cyclic peptides of protein M of SARS-CoV Urbani / Binding of serum 37 to looped/cyclic peptides of protein M of SARS-CoV Urbani / Binding of serum 6 to linear peptides of protein X3 of SARS-CoV Urbani / Binding of serum 37 to linear peptides of protein X3 of SARS-CoV Urbani / Binding of serum 37 to looped/cyclic peptides of protein X3 of SARS-CoV Urbani / Binding of serum 6 to linear peptides of protein X4 of SARS-CoV Urbani / Binding of serum 37 to linear peptides of protein X4 of SARS-CoV Urbani / Binding of serum 37 to looped/cyclic peptides of protein X4 of SARS-CoV Urbani / Binding of serum 6 to linear peptides of protein X5 of SARS-CoV Urbani / Binding of serum 37 to linear peptides of protein X5 of SARS-CoV Urbani / Binding of serum 37 to looped/cyclic peptides of protein X5 of SARS-CoV Urbani / Binding of serum 6 to linear peptides of protein N of SARS-CoV Urbani / Binding of serum 37 to linear peptides of protein N of SARS-CoV Urbani / Binding of serum 6 to linear peptide (PEPSCAN-ELISA) / Binding of serum 1a to looped/cyclic peptides of protein N of SARS-CoV Urbani / Binding of serum 1b to looped/cyclic peptides of protein N of SARS-CoV Urbani / Binding of serum 2 to looped/cyclic peptides of protein N of SARS-CoV Urbani / Binding of serum 6 to looped/cyclic peptides of protein N of SARS-CoV Urbani / Binding of serum 37 to looped/cyclic peptides of protein N of SARS-CoV Urbani / Binding of serum 62 to looped/cyclic peptides of protein N of SARS-CoV Urbani / Binding of serum London to looped/cyclic peptides of protein N of SARS-CoV Urbani / Binding of serum SARS-green to looped/cyclic peptides of protein N of SARS-CoV Urbani: unit not given here
[3] = system: recombinant human anti-SARS-CoV antibody 03-018; assay type: binding; parameters: Binding of antibody 03-018 to linear peptides of the N protein of SARS-CoV Urbani / Binding of antibody 03-018 to looped/cyclic peptides of the N protein of SARS-CoV Urbani: unit not given here
[4] = system: rabbit serum obtained by immunizing a rabbit with the SARS-CoV strain Frankfurt 1; assay type: binding; parameters: Binding of a rabbit serum to linear peptides / Binding of a rabbit serum to looped peptides / Rabbit serum linear peptides / Rabbit serum looped peptides / Binding of a rabbit serum to linear peptides of protein N of SARS-CoV Urbani (Rabbit serum linear peptides) / Binding of a rabbit serum to looped/cyclic peptides of protein N of SARS-CoV Urbani (Rabbit serum looped peptides): unit not given here

Sequence	Binding of serum 1a to linear peptides of protein N of SARS-CoV Urbani [2]	Binding of serum 1a to looped/cyclic peptides of protein N of SARS-CoV Urbani [2]	Binding of serum 1b to linear peptides of protein N of SARS-CoV Urbani [2]	Binding of serum 1b to looped/cyclic peptides of protein N of SARS-CoV Urbani [2]	Binding of serum 2 to linear peptides of protein N of SARS-CoV Urbani [2]	Binding of serum 2 to looped/cyclic peptides of protein N of SARS-CoV Urbani [2]	Binding of serum 6 to linear peptides of protein N of SARS-CoV Urbani [2]	Binding of serum 6 to looped/cyclic peptides of protein N of SARS-CoV Urbani [2]	Binding of serum 37 to linear peptides of protein N of SARS-CoV Urbani [2]	Binding of serum 37 to looped/cyclic peptides of protein N of SARS-CoV Urbani [2]	Binding of serum 62 to linear peptides of protein N of SARS-CoV Urbani [2]	Binding of serum 62 to looped/cyclic peptides of protein N of SARS-CoV Urbani [2]	Binding of serum London to linear peptides of protein N of SARS-CoV Urbani [2]	Binding of serum London to looped/cyclic peptides of protein N of SARS-CoV Urbani [2]	Binding of serum SARS-green to looped/cyclic peptides of protein N of SARS-CoV Urbani [2]	Binding of serum SARS-yellow to looped/cyclic peptides of protein N of SARS-CoV Urbani [2]	Binding of antibody 03-018 to linear peptides of the N protein of SARS-CoV Urbani [3]	Binding of antibody 03-018 to looped/cyclic peptides of the N protein of SARS-CoV Urbani [3]	Binding of a rabbit serum to linear peptides of protein N of SARS-CoV Urbani (Rabbit serum linear peptides) [4]	Binding of a rabbit serum to looped/cyclic peptides of protein N of SARS-CoV Urbani (Rabbit serum looped peptides) [4]	other results
FGMSRIGMEVTPSGT	0.3	0.3	0.1	0.2	0.2	0.4	0.2	0.2	0.8	0.4	0.7	0.3	0.6	0.3	0.2	0.3	0.1	0.2	0.2	0.3	Control Serum Blood-Bank Looped peptides [1]: 0.5; Control serum Blood-bank linear peptides [1]: 0.8; Control serum LUMC linear peptides [1]: 0.7; Control serum LUMC looped peptides [1]: 0.5; Binding of serum SARS-green to linear peptides of protein N of SARS-CoV Urbani [2]: 0.3; Binding of serum SARS-yellow to linear peptides of protein N of SARS-CoV Urbani [2]: 0.7
YAEGSRGGSQASSRS		0.3		0.2		0.3		0.2		0.4		0.2		0.3	0.3	0.1	0.1	0.2	0.2	0.0	Binding of Control Serum Blood-Bank to Looped peptides [1]: 0.4; Binding of Control serum Blood-bank to linear peptides [1]: 0.9; Binding of Control serum LUMC to linear peptides [1]: 0.7; Binding of Control serum LUMC to looped peptides [1]: 0.6; Binding of serum 1a to linear peptide (PEPSCAN-ELISA) [2]: 0.3; Binding of serum 1b to linear peptide (PEPSCAN-ELISA) [2]: 0.1; Binding of serum 2 to linear peptide (PEPSCAN-ELISA) [2]: 0.3; Binding of serum 6 to linear peptide (PEPSCAN-ELISA) [2]: 0.4; Binding of serum 37 to linear peptide (PEPSCAN-ELISA) [2]: 0.7; Binding of serum 62 to linear peptide (PEPSCAN-ELISA) [2]: 0.7; Binding of serum London to linear peptide (PEPSCAN-ELISA) [2]: 0.5; Binding of serum SARS-green to linear peptide (PEPSCAN-ELISA) [2]: 0.6; Binding of serum SARS-yellow to linear peptide (PEPSCAN-ELISA) [2]: 0.6
GGDGKMKELSPRWYF	0.3	0.3	0.1	0.2	0.2	0.6	0.2	0.3	0.6	0.6	0.7	0.6	0.4	0.5	0.5	0.6	0.1	0.2	0.1	0.5	Binding of Control Serum Blood-Bank to Looped peptides [1]: 0.8; Binding of Control serum Blood-bank to linear peptides [1]: 0.8; Binding of Control serum LUMC to linear peptides [1]: 0.7; Binding of Control serum LUMC to looped peptides [1]: 0.7; Binding of serum SARS-green to linear peptides of protein N of SARS-CoV Urbani [2]: 0.2; Binding of serum SARS-yellow to linear peptides of protein N of SARS-CoV Urbani [2]: 0.7
EVTPSGTWLTYHGAI	0.2	0.4	0.1	0.3	0.1	0.5	0.2	0.3	0.7	0.8	0.5	0.9	0.4	0.5	0.7	0.4	0.1	0.2	0.1	0.3	Control Serum Blood-Bank Looped peptides [1]: 0.8; Control serum Blood-bank linear peptides [1]: 0.7; Control serum LUMC linear peptides [1]: 0.6; Control serum LUMC looped peptides [1]: 0.7; Binding of serum SARS-green to linear peptides of protein N of SARS-CoV Urbani [2]: 0.1; Binding of serum SARS-yellow to linear peptides of protein N of SARS-CoV Urbani [2]: 0.5
